Source: US9745288B2, “Compounds and methods for treating cancer by inhibiting the urokinase receptor” (Indiana University Research and Technology Corporation, priority 2011, dated 2017)

Experiments:
MDA-MB-231 cells [1] = assay: Apoptosis assay, flow cytometry with Annexin V-FITC and PI staining; format: cell-based, human; settings: 50 μM
Experimental: Apoptosis Assay. MDA-MB-231 cells were cultured in DMEM medium supplemented with 10% FBS, 100 IU/mL penicillin and 50 μg/mL streptomycin in a humidified atmosphere containing 5% CO2 at 37° C. and grew to 80-90% confluence in P-60 mm plates, then treated with various amounts of compounds or 1% DMSO (as control) for different time points. Collected the supernatants and washed the cells with 1×PBS twice and collected. The cells were detached by using cellstripper (Mediatech Inc, VA), and washed twice with cold 1× PBS and resuspended in 1× binding buffer (Cat. PNN1001, Invitrogen Corporation, Camarillo, Calif.) at a concentration of 1×10^6 cells/mL. Transferred 100 μL of the solution (1×10^5 cells) to a 5 mL culture tube. Added 5 μL of Recombinant Human Annexin V FITC conjugate (Cat. ANNEXINV01, Invitrogen) and 5 μL of propidium iodide solution (Cat. P4864, Sigma-Aldrich, St. Louis, Mo.). Gently vortexed the cells and incubated for 15 min at room (25° C.) in the dark. Added 400 μL of 1× binding buffer to each tube. Analyzed by flow cytometry (FACScan).
FIGS. 4A-4D show inhibition of MDA-MB-231 proliferation and mechanism of cell killing. To gain insight into the mechanism by which these compounds are inhibiting growth, a flow cytometry analysis with annexin V-FITC and PI staining was performed. The level of apoptotic cells in MDA-MB-231 was assessed by the percentage of Annexin V-positive/PI-negative cells present after exposure of MDAMB-231 cells to increasing concentration of IPR-69 for 24 h (FIG. 4B). At a concentration of 50 μM, IPR-69 induced significant apoptosis as evidenced by a 51% and 21% increase in apoptotic cells (Annexin V positive/PI-negative) and necrotic cells (Annexin V-positive/PI-positive), respectively. […] At a concentration of 50 μM, 26% of cells were necrotic (Annexin V positive/PI-positive), a 22% increase over control. 46% of cells were apoptotic (Annexin V positive/PInegative), compared with 4% of control.

MDA-MB-231 cells [2] = assay: Invasion assay (Boyden chamber, Matrigel); format: cell-based, human; settings: Homo sapiens
Experimental: Invasion and Migration Assays. These assays were performed using BD BioCoat Matrigel Invasion Chamber (Cat. 354480, BD Biosciences, Bedford, Mass.). The undersurface of the inserts was coated with 30 μg/mL of fibronectin (Sigma, F2006) in PBS at 4° C. overnight. The inserts were washed with PBS once. Then, 0.5 mL of serum-free medium was separately added to the upper and lower chambers to equilibrate the Matrigel invasion chambers at 37° C., 5% CO2 for 2 hours. After starvated with serumfree DMEM or 4 hours, subconfluent MDA-MB-231 cells were trypsinized and resuspended in 0.1% FBS DMEM. 5×10^4 cells in 500 μL of 0.1% FBS DMEM containing various compounds or 1.0% DMSO (as control) were added to the upper chambers. 500 μL of 10% FBS DMEM containing the same concentration of the same compound or DMSO were added to the lower chambers. We incubated the invasion chambers for 3 hours at 37° C., 5% CO2. Non-invaded cells were removed from the upper chamber with a cotton swab. The invaded cells were fixed with 100% methanol and then stained with Hematoxylin Stain Harris Modified Method (Fisher, SH30-500D). The filters were washed with water 3 times. Filters were air dried and the invaded cells were counted in ten randomly selected microscopic fields (×200 magnification). The experiment was performed in triplicate per group and shown by mean±SE.
Whether the two active compounds affected invasion, adhesion and migration in cell culture in a concentration-dependent study was tested (FIGS. 2A, 2B). For invasion, the Transwell (or Boyden) chamber assay was used.^28 The assay uses a chamber with two compartments that are separated by a microporous membrane known as Matrigel consisting of components of the ECM such as collagen, laminin and fibronectin.^28
Invasive tumor cells degrade the Matrigel and migrate through the membrane to the lower compartment. […] FIGS. 2A and 2B show the effect of representative presently disclosed compounds on MDA-MB-231 metastasis. Percent inhibition of invasion, migration, and adhesion of MDA-MB-231 by compounds that bind to uPAR.

| Compound | increase in necrotic cells (Annexin V-positive/PI-positive) (MDA-MB-231 cells [1]) | apoptotic cells (Annexin V positive/PI-negative) (MDA-MB-231 cells [1]; percent of cells) | necrotic cells (Annexin V positive/PI-positive) (MDA-MB-231 cells [1]; percent of cells) | IC50 (MDA-MB-231 cells [2]) | increase in apoptotic cells (Annexin V positive/PI-negative) (MDA-MB-231 cells [1]; 24 h) |
| --- | --- | --- | --- | --- | --- |
| CN(C)c1ccc(CNCCC(Cc2ccccc2)c2ccc3c(c2)OCO3)cc1 (racemic) [IPR-9, 4-(((3-(benzo[d][1,3]dioxol-5-yl)-4-phenylbutyl)amino)methyl)-N,Ndimethylaniline] | 22% | 46% | 26% | 30 µM | – |
| Cc1cc(C)cc(NC(=O)c2cnn(-c3ccc(C(C)C)cc3)c2C2CCNCC2)c1 [IPR-69, N-(3,5-dimethylphenyl)-1-(4-isopropylphenyl)-5-(piperidin-4-yl)-1H-pyrazole-4-carboxamide] | 21% | – | – | 30 µM | 51% |
